Earlier results, collected in patent US20100145053A1, “MODIFIED RELEASE CLOPIDOGREL FORMULATION” (CADILA HEALTHCARE LIMITED, priority 2006, published 2010).
Like-named read-outs stand apart in the source and are kept apart here.

What was measured:
[1] = in vivo
[2] = tested on: platelet aggregation to ADP; details: 4 hours after 600-mg load
[3] = tested on: platelet aggregation in response to ADP; details: 300-mg loading dose followed by 75 mg daily
[4] = tested on: ADP-induced platelet aggregation; details: in vivo

| SMILES | Time of peak concentration of Clopidogrel and its active metabolite post dosing [1] | Nonresponders (<10% reduction in platelet aggregation) ([2]; 5 μmol/L ADP) | Semiresponders (10% to 29% reduction in platelet aggregation) ([2]; 5 μmol/L ADP) | Nonresponders (<10% reduction in platelet aggregation) ([2]; 20 μmol/ADP) | Semiresponders (10% to 29% reduction in platelet aggregation) ([2]; 20 μmol/ADP) | Share of Clopidogrel available to undergo hepatic conversion to the active metabolite [1] | Share of Clopidogrel inactivated by esterases in the blood after absorption [1] | Inhibition of phosphodiesterase activity (phosphodiesterase) | Patients with Clopidogrel resistance (<10% reduction in aggregation in response to 5 μmol/L ADP) ([3]; at 2 hours) | Patients with Clopidogrel resistance (<10% reduction in aggregation in response to 5 μmol/L ADP) ([3]; at 24 hours) | Patients with Clopidogrel resistance (<10% reduction in aggregation in response to 5 μmol/L ADP) ([3]; at 5 days) | Patients with Clopidogrel resistance (<10% reduction in aggregation in response to 5 μmol/L ADP) ([3]; at 30 days) | Time for platelet aggregation and bleeding time to return to baseline after treatment is discontinued [4] |
| --- | --- | --- | --- | --- | --- | --- | --- | --- | --- | --- | --- | --- | --- |
| COC(=O)[C@H](c1ccccc1Cl)N1CCc2sccc2C1 [Clopidogrel bisulfate] | 1 to 3 h |  |  |  |  |  |  |  |  |  |  |  |  |
| COC(=O)[C@H](c1ccccc1Cl)N1CCc2sccc2C1 [Clopidogrel, Methyl (+)-(S)-alpha-(o-chlorophenyl)-6,7-dihydrothieno(3,2-c)pyridine-5(4H)-acetate] |  | 5% | 9% | 11% | 26% | 15% | 85% | does not inhibit | 63 % of patients | 31 % of patients | 31 % of patients | 15 % of patients | about 5 days |
